Target: PDE10A (UniProt Q9Y233)
Experiment: PDE10 enzyme inhibition, IMAP TR-FRET assay (Example A, MPDE10A7 Enzyme Activity and Inhibition)
Type: biochemical
Details: approximate IC50 value, Table 10
Outline: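 Compounds were preincubated 60 min at room temperature with PDE10A enzyme or tissue homogenate, then fluorescein-labeled cAMP or cGMP was added for 90 min. After stopping with IMAP binding reagents, TR-FRET was read and IC50s were fitted with a four-parameter logistic equation.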

IC50 [nM] | Molecule
1.2 | Cn1c(N[C@H]2C[C@H](n3c(=O)n(C4CC4)c4nccnc43)C2)nc2ccccc21 [Example 226, 1-cyclopropyl-3-(trans-3-((1-methyl-1H-benzo[d]imidazol-2-yl)amino)cyclobutyl)-1H-imidazo[4,5-b]pyrazin-2(3H)-one]
1.87 | O=c1n(C2CC2)c2nccnc2n1[C@H]1CC[C@H](Nc2ccc3ncccc3n2)CC1 [Example 227, 1-(trans-4-((1,5-naphthyridin-2-yl)amino)cyclohexyl)-3-cyclopropyl-1H-imidazo[4,5-b]pyrazin-2(3H)-one]
246 | O=c1n(C2CC2)c2nccnc2n1[C@H]1C[C@H](Nc2ccc3ncccc3n2)C1 [Example 228, 1-(trans-3-((1,5-naphthyridin-2-yl)amino)cyclobutyl)-3-cyclopropyl-1H-imidazo[4,5-b]pyrazin-2(3H)-one]
10.1 | O=c1n(C2CC2)c2nccnc2n1[C@H]1C[C@H](Nc2nc3ccc(Cl)cc3o2)C1 [Example 229, 1-(trans-3-((6-chlorobenzo[d]oxazol-2-yl)amino)cyclobutyl)-3-cyclopropyl-1H-imidazo[4,5-b]pyrazin-2(3H)-one]
0.393 | O=c1n(C2CC2)c2nc(Br)cnc2n1[C@H]1C[C@H](Nc2nc3ccccc3s2)C1 [Example 230, 1-(trans-3-(benzo[d]thiazol-2-ylamino)cyclobutyl)-5-bromo-3-cyclopropyl-1H-imidazo[4,5-b]pyrazin-2(3H)-one]
31.5 | O=c1n(C2CC2)c2nc(Br)cnc2n1[C@H]1C[C@H](Nc2ncc3ccc(F)cc3n2)C1 [Example 231, 5-bromo-3-cyclopropyl-1-(trans-3-((7-fluoroquinazolin-2-yl)amino)cyclobutyl)-1H-imidazo[4,5-b]pyrazin-2(3H)-one]

Molecule | IC50 [nM]
(R)-1-(trans-3-(benzo[d]thiazol-2-ylamino)cyclobutyl)-3-hydroxy-3-methyl-1H-pyrrolo[2,3-b]pyridin-2(3H)-one and (S)-1-(trans-3-(benzo[d]thiazol-2-ylamino)cyclobutyl)-3-hydroxy-3-methyl-1H-pyrrolo[2,3-b]pyridin-2(3H)-one [Example 181] | 2.86
